The results in this text go back to patent US10981906B2, “Substituted pyrrolopyridine JAK inhibitors and methods of making and using the same” (ACLARIS THERAPEUTICS, INC., priority 2017, dated 2021).

The structures appear in SMILES notation. Where only a bound is given, the exact number is not on record here.

For test [1], the target named is JAK1 (Homo sapiens (Human), UniProt P23458). The test is described as follows: JAK1 enzyme activity assay (Thermo Fisher SelectScreen Z-lyte). It is filed as biochemical. The following applies: 1 hour kinase reaction, read-out: JAK1 Inhibition IC50. Here is the method: The inhibitory potency of candidate compounds of JAK1 done at Thermo Fisher Scientific in their Selectscreen using a Z-lyte assay. The 2×JAK1/Tyr 06 mixture is prepared in 50 mM HEPES pH 6.5, 0.01% BRIJ-35, 10 mM MgCl2, 1 mM EGTA, 0.02% NaN3. The final 10 μL of the Kinase Reaction consists of 21.2-91.5 ng JAK1 and 2 μM Tyr 06 in 50 mM HEPES pH 7.0, 0.01% BRIJ-35, 10 mM MgCl2, 1 mM EGTA, 0.01% NaN3. After the 1 hour Kinase Reaction incubation, 5 μL of a 1:128 dilution of Development Reagent is added.
Chain of JAK1 (P23458 whole entry): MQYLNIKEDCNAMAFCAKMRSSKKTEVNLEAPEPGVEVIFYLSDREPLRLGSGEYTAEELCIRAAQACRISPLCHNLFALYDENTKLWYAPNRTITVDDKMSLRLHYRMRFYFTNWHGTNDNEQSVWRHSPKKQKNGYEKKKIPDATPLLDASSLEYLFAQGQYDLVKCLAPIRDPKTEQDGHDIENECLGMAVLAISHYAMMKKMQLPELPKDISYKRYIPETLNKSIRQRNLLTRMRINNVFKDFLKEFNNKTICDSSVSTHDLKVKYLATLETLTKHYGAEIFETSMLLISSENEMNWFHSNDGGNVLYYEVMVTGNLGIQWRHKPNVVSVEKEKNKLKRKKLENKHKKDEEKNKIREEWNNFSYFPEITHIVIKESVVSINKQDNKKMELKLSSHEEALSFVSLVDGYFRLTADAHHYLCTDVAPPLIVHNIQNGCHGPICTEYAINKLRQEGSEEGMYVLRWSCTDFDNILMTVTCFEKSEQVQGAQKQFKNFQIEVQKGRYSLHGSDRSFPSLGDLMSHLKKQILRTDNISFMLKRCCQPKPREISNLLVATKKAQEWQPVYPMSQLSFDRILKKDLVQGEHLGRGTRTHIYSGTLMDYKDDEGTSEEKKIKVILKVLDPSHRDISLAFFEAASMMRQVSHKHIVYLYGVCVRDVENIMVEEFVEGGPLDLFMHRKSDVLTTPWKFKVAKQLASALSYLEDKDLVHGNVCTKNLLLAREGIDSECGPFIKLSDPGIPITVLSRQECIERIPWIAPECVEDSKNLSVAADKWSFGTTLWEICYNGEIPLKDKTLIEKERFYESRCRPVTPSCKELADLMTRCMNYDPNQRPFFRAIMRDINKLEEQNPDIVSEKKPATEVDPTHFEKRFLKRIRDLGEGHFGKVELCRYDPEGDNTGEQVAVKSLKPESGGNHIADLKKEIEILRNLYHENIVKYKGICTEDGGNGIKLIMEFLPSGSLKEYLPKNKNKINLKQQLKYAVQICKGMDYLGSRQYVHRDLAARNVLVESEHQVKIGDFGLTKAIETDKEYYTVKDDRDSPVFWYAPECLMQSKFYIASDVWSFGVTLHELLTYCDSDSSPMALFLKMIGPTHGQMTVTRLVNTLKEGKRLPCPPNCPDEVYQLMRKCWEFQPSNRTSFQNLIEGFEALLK
(§1) Background signal is defined in the absence of enzyme and uninhibited signal is defined in the presence of vehicle (2% DMSO) alone. Compounds were evaluated in an 11 point dose-response ranging from […] to 0.34 nM. IC50 values of compounds are determined using a 4 parameter logistical fit of emission ratio as a function of the concentration of compound.

Test [2] deals with JAK3 (a.a. 781-1124) (Homo sapiens (Human), UniProt P52333). The test is described as follows: JAK3 enzyme activity assay (SRCtide phosphorylation, Caliper). It is filed as biochemical. The following applies: 2.5 nM JAK3, 1 μM SRCtide, 1 uM ATP, 40 minutes; read-out: JAK3 Inhibition IC50. Here is the method: The activity of JAK3 (a.a. 781-1124, ThermoFisher) was quantified by measuring the phosphorylation of SRCtide (FAM-GEEPLYWSFPAKKK-NH2). Kinase reactions were run in a 384-well Greiner plate with 2% final DMSO concentration under the buffer conditions of 20 mM HEPES, pH 7.5, 10 mM MgCl2, 0.01% BSA, and 0.0005% Tween-20. The kinase reaction components were 2.5 nM JAK3, 1 μM SRCtide peptide and 1 uM ATP. Examples were tested in dose-response starting at 2 μM (11 concentrations, 3-fold serial dilution, duplicate reactions). The reactions were incubated at room temperature for 40 minutes, then stopped by adding a 1:1 volume of 30 mM EDTA in 20 mM HEPES, pH 7.5 (15 mM EDTA final). After the reaction was stopped, the phosphorylated and unphosphorylated peptides were separated and quantified using a Caliper LC3000/EZ-Reader system and HTS Well Analyzer Software (Caliper, A PerkinElmer Company, Hopkinton, Mass.). GraFit (Erithacus Software Ltd., Horley, U.K.) was used to calculate inhibitor potency by fitting dose-response data to the 4-parameter logistical IC50 equation.
Chain of JAK3 (a.a. 781-1124) (P52333 781-1124): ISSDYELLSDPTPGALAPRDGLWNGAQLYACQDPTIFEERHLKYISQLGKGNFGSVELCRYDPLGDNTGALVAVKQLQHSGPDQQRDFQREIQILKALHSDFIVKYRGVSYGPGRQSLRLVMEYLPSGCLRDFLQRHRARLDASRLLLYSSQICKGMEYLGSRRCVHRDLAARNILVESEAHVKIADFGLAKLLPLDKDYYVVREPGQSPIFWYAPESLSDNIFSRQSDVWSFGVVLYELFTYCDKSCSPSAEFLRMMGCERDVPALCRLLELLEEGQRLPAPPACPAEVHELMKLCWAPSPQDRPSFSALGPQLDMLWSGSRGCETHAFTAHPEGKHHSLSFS
as §1

The subject of test [3] is IL-2 stimulated STAT5 phosphorylation on Tyr694 (JAK1/3). Nature of the test: JAK1/3 cellular target modulation: IL-2 stimulated phospho-STAT5 in PBMC. The following applies: Homo sapiens, PBMC, IL-2 25 ng/ml, 1 hour compound preincubation, read-out: IL2-STAT5 Inhibition IC50. It is filed as cell-based. The source says:
(§2) Target modulation was based upon the ability of a compound to inhibit JAK isoform specific phosphorylation of selected substrates. IL-2 stimulated STAT5 phosphorylation on Tyr694 was used to assess JAK1/3 compound selectivity. GM-CSF stimulated STAT5 phosphorylation on Tyr694 was used to assess JAK2 compound selectivity. IFNγ stimulated STAT1 phosphorylation on Tyr701 was used to assess JAK1/2 compound selectivity. For all three assays, human PBMC from frozen stocks were thawed, pelleted, resuspended in complete media (90% RPMI, 10% heat inactivated FBS, 10 mM HEPES, 47 μM 2-ME, pen/strep) and placed in wells of a 96 well V-bottom plate at 200,000 per well in 120 μl complete media. Compounds were added as 15 μl per well of 10× working stock solutions in complete media with 1% DMSO (or medium with 1% DMSO for controls) and placed on a plate shaker in a 37° C. incubator with 5% CO2 for 1 hour with gentle shaking (setting of 3). Stimulation used the addition of soluble cytokines. For the JAK1/3 phospho-STAT5 assay, 15 μl of 10× working stock recombinant human IL-2 was added to a final concentration of 25 ng/ml. For the JAK2 phospho-STAT5 assay, 15 μl of 10× working stock recombinant human GM-CSF was added to a final concentration of 5 ng/ml. For the JAK1/2 phospho-STAT1 assay, 15 μl of 10× working stock of recombinant human IFNγ was added to a final concentration of 10 ng/ml. Plates were then placed back on the plate shaker in the incubator for an additional 5, 5 and 10 minutes respectively upon which the plates were removed from the incubator, sealed with a plate sealer and the cells pelleted at 400×g for 5 minutes. After pelleting, the media was removed by aspiration and the cells were lysed in ELISA specific cell lysis buffer. The levels of phospho-STAT5 were determined using a Phospho (Tyr694)/Total STAT5a,b Whole Cell Lysate kit from Meso Scale Discovery. Levels of phospho-STAT1 were determined using a CST-PathScan Phospho-STAT1 (Tyr701) Sandwich ELISA kit.

The subject of test [4] is IFNγ stimulated STAT1 phosphorylation on Tyr701 (JAK1/2). Nature of the test: JAK1/2 cellular target modulation: IFNγ stimulated phospho-STAT1 in PBMC. It is filed as cell-based. As to conditions: Homo sapiens, PBMC, IFNγ 10 ng/ml, 1 hour compound preincubation, read-out: Infγ-STAT1 IC50.
From the text: as §2

With `COCCOC(=O)c1cnc2[nH]ccc2c1N[C@H]1CN(C(=O)CC#N)CC[C@H]1C` [Example 21, 2-methoxyethyl 4-(((3R,4R)-1-(2-cyanoacetyl)-4-methylpiperidin-3-yl)amino)-1H-pyrrolo[2,3-b]pyridine-5-carboxylate], the IC50 was 0.01 to 0.1 µM in test [1], at most 0.01 µM in test [2], 0.1 to 1 µM in test [3] and over 1 µM in test [4].
Regarding `CCOC(=O)c1cnc2[nH]ccc2c1N[C@H]1CN(C(=O)CC#N)CC[C@H]1C` [Example 3, ethyl 4-(((3R,4R)-1-(2-cyanoacetyl)-4-methylpiperidin-3-yl)amino)-1H-pyrrolo[2,3-b]pyridine-5-carboxylate], the IC50 was at most 0.01 µM in test [1], at most 0.01 µM in test [2], at most 0.1 µM in test [3] and 0.1 to 1 µM in test [4].
With `CCOC(=O)c1cnc2[nH]ccc2c1N[C@H]1CN(C(=O)C2(C#N)CC2)CC[C@H]1C` [Example 126, ethyl 4-(((3R,4R)-1-(1-cyanocyclopropane-1-carbonyl)-4-methylpiperidin-3-yl)amino)-1H-pyrrolo[2,3-b]pyridine-5-carboxylate], the concentration for half-maximal inhibition (IC50) in test [1] is 0.01 to 0.1 µM; in test [2], 0.01 to 0.1 µM; in test [3], 0.1 to 1 µM; in test [4], over 1 µM.
As to `COC(=O)c1cnc2[nH]ccc2c1N[C@@H]1CCC[C@H](CCC#N)C1` (racemic) [Example 152, cis-racemic-methyl 4-((3-(2-cyanoethyl)cyclohexyl)amino)-1H-pyrrolo[2,3-b]pyridine-5-carboxylate], the IC50 in test [1] is at most 0.01 µM; in test [2] it was at most 0.01 µM; in test [3] it was at most 0.1 µM; in test [4] it was 0.1 to 1 µM.
Regarding `CCOC(=O)c1cnc2[nH]ccc2c1N[C@H]1CN(CCC#N)CC[C@H]1C` [Example 24, ethyl 4-(((3R,4R)-1-(2-cyanoethyl)-4-methylpiperidin-3-yl)amino)-1H-pyrrolo[2,3-b]pyridine-5-carboxylate], the IC50 in test [1] is at most 0.01 µM; in test [2], at most 0.01 µM; in test [3], at most 0.1 µM; in test [4], 0.1 to 1 µM.
As for `CCOC(=O)c1cnc2[nH]ccc2c1N[C@H]1CCC[C@H](CCC#N)C1` (racemic) [Example 134, (rac)-(trans)-Ethyl 4-((3-(2-cyanoethyl)cyclohexyl)amino)-1H-pyrrolo[2,3-b]pyridine-5-carboxylate], the IC50 in test [1] is at most 0.01 µM; in test [2], at most 0.01 µM; in test [3], at most 0.1 µM; in test [4], 0.1 to 1 µM.
`CCOC(=O)c1cnc2[nH]ccc2c1N[C@@H]1CCCN(C(=O)C(C)(C)C#N)C1` [Example 144, ethyl (R)-4-((1-(2-cyano-2-methylpropanoyl)piperidin-3-yl)amino)-1H-pyrrolo[2,3-b]pyridine-5-carboxylate]: the IC50 in test [1] lay in the range of 0.01 to 0.1 µM; in test [2], 0.01 to 0.1 µM; in test [3], 0.1 to 1 µM; in test [4], 0.1 to 1 µM.
On to `CCOC(=O)c1cnc2[nH]ccc2c1N[C@H]1CC[C@H](CS(=O)(=O)NC)CC1` [Example 92, ethyl 4-(((1r,4r)-4-((N-methylsulfamoyl)methyl)cyclohexyl)amino)-1H-pyrrolo[2,3-b]pyridine-5-carboxylate], for which the IC50 in test [1] is at most 0.01 µM; in test [2], at most 0.01 µM; in test [3], at most 0.1 µM; in test [4], 0.1 to 1 µM.
For `COCCOC(=O)c1cnc2[nH]ccc2c1N[C@@H]1CCC[C@H](CCC#N)C1` (single isomer, unassigned; enantiomer 2) [Example 150, cis 2-methoxyethyl 4-((3-(2-cyanoethyl)cyclohexyl)amino)-1H-pyrrolo[2,3-b]pyridine-5-carboxylate, enantiomer 2], the IC50 was at most 0.01 µM in test [1], at most 0.01 µM in test [2], at most 0.1 µM in test [3] and 0.1 to 1 µM in test [4].
Regarding `COCCOC(=O)c1cnc2[nH]ccc2c1N[C@@H]1CCCN(C(=O)CC#N)C1` [Example 131, 2-methoxyethyl (R)-4-((1-(2-cyanoacetyl)piperidin-3-yl)amino)-1H-pyrrolo[2,3-b]pyridine-5-carboxylate], the 50% inhibitory concentration (IC50) was 0.01 to 0.1 µM in test [1], 0.01 to 0.1 µM in test [2], 0.1 to 1 µM in test [3] and 0.1 to 1 µM in test [4].
Regarding `C=CC(=O)N1CCC[C@@H](Nc2c(C(=O)OCC)cnc3[nH]ccc23)C1` [Example 34, ethyl (R)-4-((1-acryloylpiperidin-3-yl)amino)-1H-pyrrolo[2,3-b]pyridine-5-carboxylate], the IC50 in test [1] was 0.1 to 1 µM; in test [2] it was 0.1 to 1 µM; in test [3], 0.1 to 1 µM; in test [4], over 1 µM.
On to `CCOC(=O)c1cnc2[nH]ccc2c1N[C@@H]1CC[C@H](C)N(C(=O)CC#N)C1` [Example 146, ethyl 4-(((3R,6S)-1-(2-cyanoacetyl)-6-methylpiperidin-3-yl)amino)-1H-pyrrolo[2,3-b]pyridine-5-carboxylate], for which the 50% inhibitory concentration (IC50) in test [1] is at most 0.01 µM; in test [2], at most 0.01 µM; in test [3], at most 0.1 µM; in test [4] it was at most 0.1 µM.
`CCCOC(=O)c1cnc2[nH]ccc2c1N[C@@H]1CCCN(C(=O)CC#N)C1` [Example 130, propyl (R)-4-((1-(2-cyanoacetyl)piperidin-3-yl)amino)-1H-pyrrolo[2,3-b]pyridine-5-carboxylate]: the half-inhibitory concentration (IC50) was at most 0.01 µM in test [1], at most 0.01 µM in test [2], 0.1 to 1 µM in test [3] and 0.1 to 1 µM in test [4].
For `CCOC(=O)c1cnc2[nH]ccc2c1N[C@H]1CN(C(=O)C(C)C#N)CC[C@H]1C` (stereo partly drawn) [Example 127, ethyl 4-(((3R,4R)-1-(2-cyanopropanoyl)-4-methylpiperidin-3-yl)amino)-1H-pyrrolo[2,3-b]pyridine-5-carboxylate], the IC50 in test [1] is at most 0.01 µM; in test [2], 0.01 to 0.1 µM; in test [3] it was at most 0.1 µM; in test [4] it was 0.1 to 1 µM.
Consider `N#CCC(=O)N1CCC[C@@H](Nc2c(C(=O)OCC3CC3)cnc3[nH]ccc23)C1` [Example 145, cyclopropylmethyl (R)-4-((1-(2-cyanoacetyl)piperidin-3-yl)amino)-1H-pyrrolo[2,3-b]pyridine-5-carboxylate], for which the IC50 is at most 0.01 µM in test [1], 0.01 to 0.1 µM in test [2], at most 0.1 µM in test [3] and 0.1 to 1 µM in test [4].
In the same order, the values of `CCOC(=O)c1cnc2[nH]ccc2c1N[C@@H]1CCCN(C(=O)C2(C#N)CC2)C1` [Example 128, ethyl (R)-4-((1-(1-cyanocyclopropane-1-carbonyl)piperidin-3-yl)amino)-1H-pyrrolo[2,3-b]pyridine-5-carboxylate] are 0.01 to 0.1 µM, at most 0.01 µM, at most 0.1 µM and over 1 µM.

In general, IC50 refers to the concentration needed to halve the response being measured.
